Experimental data reported in patent EP2913333A1 (priority 2014, dated 2015).

Legend:
E. feacium DltA = target: T1, E. feacium DltA (Enterococcus faecium, UniProt Q3XZT7); assay: in vitro DltA activity assay (luminescence, IC50 determination); assay type: biochemical; details: recombinant DltA, 30min preincubation at room temperature, 0.5mM D-Alanine, 0.5-5µM ATP; read-out: E. feacium DltA IC50
T1 sequence (Q3XZT7 1-504): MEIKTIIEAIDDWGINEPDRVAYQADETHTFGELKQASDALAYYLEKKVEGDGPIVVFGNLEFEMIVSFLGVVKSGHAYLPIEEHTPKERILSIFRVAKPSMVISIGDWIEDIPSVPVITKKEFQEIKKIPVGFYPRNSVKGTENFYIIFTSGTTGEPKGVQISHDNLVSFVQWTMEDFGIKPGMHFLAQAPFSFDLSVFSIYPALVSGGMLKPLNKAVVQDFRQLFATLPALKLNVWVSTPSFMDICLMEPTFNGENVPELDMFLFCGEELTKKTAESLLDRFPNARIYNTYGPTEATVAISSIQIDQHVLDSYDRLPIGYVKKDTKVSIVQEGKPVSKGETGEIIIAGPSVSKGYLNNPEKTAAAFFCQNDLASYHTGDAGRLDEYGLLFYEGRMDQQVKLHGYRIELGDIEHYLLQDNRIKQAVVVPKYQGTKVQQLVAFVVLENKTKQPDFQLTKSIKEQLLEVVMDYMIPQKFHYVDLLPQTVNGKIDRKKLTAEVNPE
Procedure: (§1) The effect of the compounds of the invention on DltA enzymes has been based on the measure of their inhibition of DltA activity in vitro. To this end, recombinant proteins DltA were expressed and purified after cloning of the genes of S. aureus, E. faecalis, E. faecium and S. agalactiae as described thereafter. The capacity of the compounds of the invention to inhibit DltA enzymatic activity was assessed using the DltA assays as described below: • The dltA gene was amplified from chromosomal DNA of S. aureus, E. faecalis, E. faecium and S. agalactiae and introduced into E. coli BL21 (Invitrogen, Carlsbad, CA) following manufacturer's instruction. Bacteria were grown at 37°C under aerobic conditions and isopropyl-beta-D-thiogalactopyranoside (IPTG) was added to 0.5-1 mM when OD600 of the bacterial culture had reached 0.5. After a further incubation for 3 hours, cells were harvested by centrifugation. Purification of the recombinant DltA protein was performed by affinity chromatography on nickel-nitrilotriacetic acid (Ni-NTA) column following manufacturer's instructions (Qiagen). Fractions containing recombinant DltA protein were adjusted to 50% glycerol and stored at -20°C until use.
(§2) The binding potency of the inhibitors against DltA enzyme was assessed by IC50 determination in an in vitro DltA activity assay. The assay buffer "AB" contained 50 mM Hepes pH8.0, 10mM MgCl2, 50mM KCI, 0.012% Triton-X100, 10mM DTT and 100nM Myelin-basic protein. The following components were added in a white polystyrene Costar plate up to a final volume of 30µL: 3µL DMSO, or inhibitor dissolved in DMSO and 27µL DltA enzyme in AB. After 30min of preincubation at room temperature, 30µL of Substrates mix in AB were added in each well to a final volume of 60µL. This reaction mixture was then composed of DltA (produced in house from S. aureus, E. faecalis, E. faecium and S. agalactiae), 0.5mM D-Alanine (Sigma), 0.5-5µM ATP (Sigma) and 0.05 u/ml inorganic pyrophosphatase (Sigma) in assay buffer. After typically 1-2hours of incubation at room temperature (conversion rate around 30%), 30µL of the revelation mix were added to a final volume of 90µL, including the following constituents at the respective final concentrations: 10000 u/ml luciferase (Sigma), 30µM D-luciferin (Sigma), 100µM N-acetylcysteamine (Aldrich). Luminescence intensity was immediately measured on a Fluostar Optima (BMG) (excitation 360nm, emission 520nm) and converted into inhibition percentages.
(§3) For compounds interfering with the luminescent signal (quenching), the same experiment without DltA enzyme was performed to allow quenching determination and correction.

S. aureus DltA = target: T2, S. aureus DltA (Staphylococcus aureus, UniProt Q2FZW6); assay: as above; assay type: biochemical
T2 construct: made in house; host or cells: E. coli BL21
T2 sequence (Q2FZW6 1-485): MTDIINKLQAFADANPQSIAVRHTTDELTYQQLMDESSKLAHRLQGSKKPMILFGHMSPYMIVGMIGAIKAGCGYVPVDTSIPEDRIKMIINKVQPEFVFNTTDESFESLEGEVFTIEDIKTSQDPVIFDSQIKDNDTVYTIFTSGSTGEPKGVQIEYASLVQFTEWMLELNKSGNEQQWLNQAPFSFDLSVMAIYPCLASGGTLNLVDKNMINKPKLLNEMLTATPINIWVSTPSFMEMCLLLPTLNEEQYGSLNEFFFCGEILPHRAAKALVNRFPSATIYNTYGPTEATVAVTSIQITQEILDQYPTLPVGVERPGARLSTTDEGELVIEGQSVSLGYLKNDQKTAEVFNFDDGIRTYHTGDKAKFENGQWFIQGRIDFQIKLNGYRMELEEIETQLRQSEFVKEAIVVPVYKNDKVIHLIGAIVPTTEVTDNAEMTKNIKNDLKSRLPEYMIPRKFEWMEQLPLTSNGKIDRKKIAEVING
Procedure: as §1, §2, §3

S. Agalactiae DltA = target: T3, S. Agalactiae DltA (Streptococcus agalactiae serotype III, UniProt Q8VM67); assay: biochemical
T3 sequence (Q8VM67 1-511): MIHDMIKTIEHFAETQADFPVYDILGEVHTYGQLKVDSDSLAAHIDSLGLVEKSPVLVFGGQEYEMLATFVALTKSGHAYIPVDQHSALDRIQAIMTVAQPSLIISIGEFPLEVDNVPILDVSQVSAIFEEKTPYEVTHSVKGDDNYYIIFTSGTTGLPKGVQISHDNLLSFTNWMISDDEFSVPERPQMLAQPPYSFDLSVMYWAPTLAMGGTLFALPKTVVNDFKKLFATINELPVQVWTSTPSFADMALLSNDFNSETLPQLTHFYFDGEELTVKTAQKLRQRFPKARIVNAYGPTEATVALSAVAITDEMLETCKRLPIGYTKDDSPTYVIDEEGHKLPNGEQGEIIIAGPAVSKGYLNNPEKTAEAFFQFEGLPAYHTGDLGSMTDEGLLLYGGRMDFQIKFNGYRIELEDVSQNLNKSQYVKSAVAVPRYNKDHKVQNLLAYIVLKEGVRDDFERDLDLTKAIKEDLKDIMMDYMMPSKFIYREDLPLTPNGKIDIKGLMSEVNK
Procedure: as §1, with “To” for “The effect of the compounds of the invention on DltA enzymes has been based on the measure of their inhibition of DltA activity in vitro. To”
as §2, §3

E. feacalis DltA = target: T4, E. feacalis DltA (Enterococcus faecalis, UniProt Q830N0); assay: biochemical
T4 sequence (Q830N0 1-506): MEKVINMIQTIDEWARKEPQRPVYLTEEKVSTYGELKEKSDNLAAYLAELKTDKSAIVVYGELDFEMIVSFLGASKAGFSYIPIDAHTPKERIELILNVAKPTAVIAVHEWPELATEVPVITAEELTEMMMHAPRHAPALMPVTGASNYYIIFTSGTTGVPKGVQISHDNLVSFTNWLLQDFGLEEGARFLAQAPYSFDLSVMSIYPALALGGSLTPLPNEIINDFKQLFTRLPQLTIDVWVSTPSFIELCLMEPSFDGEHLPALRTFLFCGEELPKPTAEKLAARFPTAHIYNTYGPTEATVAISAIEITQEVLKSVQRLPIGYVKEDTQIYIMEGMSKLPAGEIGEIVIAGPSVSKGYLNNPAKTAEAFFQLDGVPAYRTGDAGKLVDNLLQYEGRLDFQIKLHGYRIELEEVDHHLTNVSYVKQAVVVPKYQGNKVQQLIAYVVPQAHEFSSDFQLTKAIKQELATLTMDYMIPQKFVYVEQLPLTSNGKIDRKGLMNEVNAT
Procedure: as §1, with “To” for “The effect of the compounds of the invention on DltA enzymes has been based on the measure of their inhibition of DltA activity in vitro. To”
as §2, §3

| SMILES | IC50 (E. feacium DltA) | IC50 (S. aureus DltA) | IC50 (S. Agalactiae DltA) | IC50 (E. feacalis DltA) |
| --- | --- | --- | --- | --- |
| O=c1[nH]cnc2c(-c3ccc4c(c3)ncn4C3CCCCC3)cn(CCCCCO)c12 [Example 68, 7-(1-Cyclohexyl-1H-benzimidazol-5-yl)-5-(5-hydroxy-pentyl)-3,5-dihydro-pyrrolo[3,2-d]pyrimidin-4-one] | 730 nM | 290 nM | 4500 nM | 320 nM |
| O=c1[nH]cnc2c(-c3ccc4c(c3)ncn4C3CCCCC3)cn(C3CCNCC3)c12 [Example 73, 7-(1-Cyclohexyl-1H-benzimidazol-5-yl)-5-piperidin-4-yl-3,5-dihydro-pyrrolo[3,2-d]pyrimidin-4-one] | 280 nM | 72 nM | 1000 nM | 61 nM |
| O=c1[nH]cnc2c(-c3ccc4c(c3)ncn4C3CCCCC3)cn([C@H]3CC[C@@H](CO)CC3)c12 [Example 74, 7-(1-Cyclohexyl-1H-benzimidazol-5-yl)-5-[cis-(4-hydroxymethyl-cyclohexyl)]-3,5-dihydro-pyrrolo[3,2-d]pyrimidin-4-one] | 140 nM | 150 nM | 1100 nM | 93 nM |
| O=c1[nH]cnc2c(-c3ccc4c(c3)ncn4C3CCCCC3)cn([C@H]3CCCNC3)c12 [Example 76, 7-(1-Cyclohexyl-1H-benzimidazol-5-yl)-5-(S)-piperidin-3-yl-3,5-dihydro-pyrrolo[3,2-d]pyrimidin-4-one] | 460 nM | 67 nM | 1200 nM | 69 nM |
| O=c1[nH]cnc2c(-c3ccc4c(c3)ncn4C3CCCCC3)cn(C3CCNC3)c12 (centres unmarked) [Example 77, 7-(1-Cyclohexyl-1H-benzimidazol-5-yl)-5-pyrrolidin-3-yl-3,5-dihydro-pyrrolo[3,2-d]pyrimidin-4-one] | 510 nM | 93 nM | 1600 nM | 130 nM |
| CN(C)CCCn1cc(-c2ccc3c(c2)ncn3C2CCCCC2)c2nc[nH]c(=O)c21 [Example 80, 7-(1-Cyclohexyl-1H-benzimidazol-5-yl)-5-(3-dimethylamino-propyl)-3,5-dihydro-pyrrolo[3,2-d]pyrimidin-4-one] | 620 nM | 270 nM | 1500 nM | 55 nM |
| O=c1[nH]cnc2c(-c3ccc4c(c3)ncn4C3CCCCC3)cn(C3CCOCC3)c12 [Example 81, 7-(1-Cyclohexyl-1H-benzimidazol-5-yl)-5-(tetrahydro-pyran-4-yl)-3,5-dihydro-pyrrolo[3,2-d]pyrimidin-4-one] | 300 nM | 76 nM | 2500 nM | 170 nM |
| CC(C)N1CCC(n2cc(-c3ccc4c(c3)ncn4C3CCCCC3)c3nc[nH]c(=O)c32)CC1 [Example 82, 7-(1-Cyclohexyl-1H-benzimidazol-5-yl)-5-(1-isopropyl-piperidin-4-yl)-3,5-dihydro-pyrrolo[3,2-d]pyrimidin-4-one] | 380 nM | 56 nM | 1900 nM | 100 nM |
